The values below are quoted from earlier work in patent US6849617B2, “Tissue factor antagonists and methods of use thereof” (Sunol Molecular Corporation, priority 1999, dated 2005).

This data set has as its target tissue factor (TF) (Homo sapiens, UniProt P13726). Conditions: as disclosed in U.S. application Ser. No. 09/406269.

Sequence of tissue factor (TF) (P13726 33-295): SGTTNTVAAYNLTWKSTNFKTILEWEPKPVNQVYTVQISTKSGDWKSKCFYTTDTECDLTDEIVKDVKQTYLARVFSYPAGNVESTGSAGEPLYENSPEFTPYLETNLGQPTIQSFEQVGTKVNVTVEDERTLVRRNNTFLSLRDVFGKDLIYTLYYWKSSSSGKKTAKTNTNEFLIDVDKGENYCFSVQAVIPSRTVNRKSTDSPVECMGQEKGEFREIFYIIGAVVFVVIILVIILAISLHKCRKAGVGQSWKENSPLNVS

In the case of `NCCCC(O)(P(=O)(O)O)P(=O)(O)O` [alendronic acid], the TF antagonist activity entry is listed as “effective TF antagonist”.
